In ChEMBL document CHEMBL4477196, “Rhodocomatulin-Type Anthraquinones from the Australian Marine Invertebrates Clathria hirsuta and Comatula rotalaria” (2016):

System: MCF7
Experiment: Growth inhibition of human MCF7 cells at 10 uM incubated for 72 hrs by SRB assay
Type: functional
Details: MCF7, 72 h, read-out: GI

Q: How did the inhibition of growth at 10 µM turn out when `CCCC(=O)c1c(O)cc(O)c2c1C(=O)c1cc(OC)cc(OC)c1C2=O` was run?
A: The inhibition of growth at 10 µM was 9%.
